{"source": "ChEMBL document CHEMBL1201862", "about": "“PubChem BioAssay data set” (2004)", "key": {"[1]": {"target": "T1, Orexin/Hypocretin receptor type 1 (Homo sapiens, UniProt O43613)", "T1 sequence (O43613 whole entry)": "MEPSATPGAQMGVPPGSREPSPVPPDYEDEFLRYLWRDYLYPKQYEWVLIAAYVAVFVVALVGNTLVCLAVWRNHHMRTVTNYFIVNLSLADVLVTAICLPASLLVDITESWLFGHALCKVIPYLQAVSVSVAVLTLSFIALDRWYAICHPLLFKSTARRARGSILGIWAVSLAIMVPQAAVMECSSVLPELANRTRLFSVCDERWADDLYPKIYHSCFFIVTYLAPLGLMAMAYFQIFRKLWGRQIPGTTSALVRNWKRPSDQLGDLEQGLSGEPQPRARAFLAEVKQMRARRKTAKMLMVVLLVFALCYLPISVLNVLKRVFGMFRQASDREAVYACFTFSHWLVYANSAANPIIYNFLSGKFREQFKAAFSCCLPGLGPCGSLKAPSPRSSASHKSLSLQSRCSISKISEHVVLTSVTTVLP", "experiment": "Homogeneous Time Resolved Fluorescence (HTRF)-based cell-based high throughput dose response assay for antagonists of the orexin 1 receptor (OX1R; HCRTR1). [Related pubchem assays (depositor defined):AID434989, AID435008, AID463079, AID485270, AID492963, AID492964, AID492965, AID493232, AID504717, AID504718]", "format": "functional"}, "[2]": {"target": "T2, 1-phosphatidylinositol 4,5-bisphosphate phosphodiesterase beta-3 (Homo sapiens, UniProt Q01970)", "T2 sequence (Q01970 whole entry)": "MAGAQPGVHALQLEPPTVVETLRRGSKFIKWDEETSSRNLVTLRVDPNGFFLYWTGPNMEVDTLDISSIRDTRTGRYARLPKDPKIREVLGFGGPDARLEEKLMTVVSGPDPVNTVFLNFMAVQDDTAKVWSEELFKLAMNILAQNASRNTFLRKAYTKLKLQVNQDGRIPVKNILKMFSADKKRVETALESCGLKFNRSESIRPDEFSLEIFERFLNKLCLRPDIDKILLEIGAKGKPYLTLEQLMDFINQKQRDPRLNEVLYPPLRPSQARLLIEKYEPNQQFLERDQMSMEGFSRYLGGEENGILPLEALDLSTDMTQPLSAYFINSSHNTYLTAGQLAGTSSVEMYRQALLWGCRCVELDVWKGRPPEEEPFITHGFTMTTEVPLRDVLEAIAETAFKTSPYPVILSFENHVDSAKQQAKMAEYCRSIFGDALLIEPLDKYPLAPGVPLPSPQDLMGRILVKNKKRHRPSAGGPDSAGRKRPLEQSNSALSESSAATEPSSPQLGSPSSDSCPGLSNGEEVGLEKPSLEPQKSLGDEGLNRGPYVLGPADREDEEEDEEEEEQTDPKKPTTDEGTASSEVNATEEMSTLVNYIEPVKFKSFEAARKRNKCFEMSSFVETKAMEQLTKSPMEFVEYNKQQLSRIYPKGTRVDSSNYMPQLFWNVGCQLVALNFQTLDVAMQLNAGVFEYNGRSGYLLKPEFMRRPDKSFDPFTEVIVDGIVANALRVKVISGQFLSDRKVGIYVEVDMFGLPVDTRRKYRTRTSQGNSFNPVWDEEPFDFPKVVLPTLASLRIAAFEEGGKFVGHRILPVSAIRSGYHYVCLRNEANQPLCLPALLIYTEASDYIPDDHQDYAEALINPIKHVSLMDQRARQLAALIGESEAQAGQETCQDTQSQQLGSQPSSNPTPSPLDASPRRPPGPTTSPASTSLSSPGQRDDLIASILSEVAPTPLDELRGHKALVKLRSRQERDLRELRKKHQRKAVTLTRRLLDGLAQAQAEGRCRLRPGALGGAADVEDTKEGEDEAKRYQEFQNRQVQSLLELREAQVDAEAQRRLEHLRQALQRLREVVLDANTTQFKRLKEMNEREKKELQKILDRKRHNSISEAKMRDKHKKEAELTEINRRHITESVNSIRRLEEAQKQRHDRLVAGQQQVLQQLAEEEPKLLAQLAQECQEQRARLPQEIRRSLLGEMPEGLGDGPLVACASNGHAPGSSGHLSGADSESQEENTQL", "experiment": "Fluorescence-based biochemical high throughput dose response assay to identify inhibitors of phospholipase C isozymes (PLC-B3)."}, "SUMO-activating enzyme": {"target": "SUMO-activating enzyme (Homo sapiens, UniProt Q9UBT2)", "sequence (Q9UBE0 whole entry)": "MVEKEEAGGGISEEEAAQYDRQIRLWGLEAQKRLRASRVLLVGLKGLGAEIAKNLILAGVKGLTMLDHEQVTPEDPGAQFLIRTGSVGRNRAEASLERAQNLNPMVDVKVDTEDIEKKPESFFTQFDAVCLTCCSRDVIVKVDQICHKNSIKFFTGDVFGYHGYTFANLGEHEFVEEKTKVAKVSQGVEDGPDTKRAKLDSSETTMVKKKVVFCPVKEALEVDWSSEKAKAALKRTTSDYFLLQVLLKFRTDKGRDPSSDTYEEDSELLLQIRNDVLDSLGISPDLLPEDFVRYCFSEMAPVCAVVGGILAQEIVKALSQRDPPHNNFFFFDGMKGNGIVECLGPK", "sequence (Q9UBT2 whole entry)": "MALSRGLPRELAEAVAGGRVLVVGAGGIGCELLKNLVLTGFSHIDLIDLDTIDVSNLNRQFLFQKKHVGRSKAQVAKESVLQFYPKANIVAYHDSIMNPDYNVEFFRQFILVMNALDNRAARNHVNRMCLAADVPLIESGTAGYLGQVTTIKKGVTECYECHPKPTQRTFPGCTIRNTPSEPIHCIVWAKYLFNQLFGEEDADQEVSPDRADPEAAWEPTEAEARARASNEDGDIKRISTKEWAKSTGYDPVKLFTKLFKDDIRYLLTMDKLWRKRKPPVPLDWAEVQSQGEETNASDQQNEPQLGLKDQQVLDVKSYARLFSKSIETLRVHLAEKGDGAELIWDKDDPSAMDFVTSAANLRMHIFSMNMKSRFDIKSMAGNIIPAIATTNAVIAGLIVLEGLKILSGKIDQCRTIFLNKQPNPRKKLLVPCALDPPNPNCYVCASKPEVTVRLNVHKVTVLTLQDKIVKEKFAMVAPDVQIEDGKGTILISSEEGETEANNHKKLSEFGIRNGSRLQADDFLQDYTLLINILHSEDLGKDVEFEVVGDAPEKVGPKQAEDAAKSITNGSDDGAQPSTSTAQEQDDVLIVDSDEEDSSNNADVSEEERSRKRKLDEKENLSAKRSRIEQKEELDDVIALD", "experiment": "inhibitors of in vitro SUMOylation cascade, primary screen, biochemical, HTRF, uHTS (AID 2006)", "format": "protein-complex assay"}}, "note": "Active and inactive are the calls of the source.", "data": [{"smiles": "Cc1ccc(C(=O)OCn2ncc(Cl)c(Cl)c2=O)cc1", "values": [{"measurement": "IC50", "setting": "[1]", "value": "17.4 µM (inactive)"}]}, {"smiles": "O=C(O)CC(C(=O)O)N1C(=O)/C(=C/C=C/c2ccco2)SC1=S", "note": "(stereo not drawn)", "values": [{"measurement": "IC50", "setting": "[2]", "value": "> 122 µM (inactive)"}, {"measurement": "IC50", "setting": "SUMO-activating enzyme", "value": "13.7 µM (active)"}]}]}
